Test results taken from patent US20110039762A1, “TARGETED ANTIMICROBIAL MOIETIES” (C3 JIAN, INC., priority 2009, published 2011).
Entries after “also recorded” stand apart in the source; their conditions may differ.

test system: microorganisms (e.g., bacteria, yeasts, fungi); experiment: Targeting peptide binding to target microorganisms (Table 3); settings: microorganism the targeting peptide binds; binding in aqueous buffers varied by peptide solubility, preferably 1x PBS

Substance	Target(s)
1T-64 (QTVHHIHMHVLGQRQMHWPPG; Peptide with targeting and/or antimicrobial activity) [Peptide 1T-64]	S. aureus; also recorded: S. epidermidis; also recorded: C. jeikeium; also recorded: C. xerosis; also recorded: C. striatum; also recorded: P. aeruginosa
1T-65 (HARAAVGVAELPRGAAVEVELIAAVRP; Peptide with targeting and/or antimicrobial activity) [Peptide 1T-65]	S. mutans; also recorded: S. aureus; also recorded: S. epidermidis; also recorded: C. jeikeium; also recorded: C. xerosis; also recorded: C. striatum; also recorded: P. aeruginosa
1T-66 (DTDCLSRAYAQRIDELDKQYAGIDKPL; Peptide with targeting and/or antimicrobial activity) [Peptide 1T-66]	S. mutans; also recorded: S. aureus; also recorded: S. epidermidis; also recorded: C. jeikeium; also recorded: C. xerosis; also recorded: C. striatum; also recorded: P. aeruginosa
1T-67 (GQRQRLTCGRVSGCSEGPSREAAR; Peptide with targeting and/or antimicrobial activity) [Peptide 1T-67]	S. aureus; also recorded: S. epidermidis; also recorded: C. jeikeium; also recorded: C. xerosis; also recorded: C. striatum; also recorded: P. aeruginosa
1T-68 (GGTKEIVYQRG; Peptide with targeting and/or antimicrobial activity) [Peptide 1T-68]	S. mutans; also recorded: S. aureus; also recorded: C. jeikeium; also recorded: C. xerosis; also recorded: C. striatum; also recorded: P. aeruginosa
1T-69 (ILSQEADRKKLF; Peptide with targeting and/or antimicrobial activity) [Peptide 1T-69]	S. mutans; also recorded: P. aeruginosa
1T-70 (NRQAQGERAHGEQQG; Peptide with targeting and/or antimicrobial activity) [Peptide 1T-70]	S. aureus; also recorded: C. jeikeium; also recorded: P. aeruginosa
1T-71 (KIDTNQWPPNKEG; Peptide with targeting and/or antimicrobial activity) [Peptide 1T-71]	P. aeruginosa
1T-72 (EPTDGVACKER; Peptide with targeting and/or antimicrobial activity) [Peptide 1T-72]	P. aeruginosa
1T-73 (GWWEELLHETILSKFKITKALELPIQL; Peptide with targeting and/or antimicrobial activity) [Peptide 1T-73]	S. pneumoniae
1T-74 (DIDWGRKISCAAGVAYGAIDGCATTV; Peptide with targeting and/or antimicrobial activity) [Peptide 1T-74]	S. pneumoniae
1T-75 (GVARGLQLGIKTRTQWGAATGAA; Peptide with targeting and/or antimicrobial activity) [Peptide 1T-75]	S. pneumoniae
1T-76 (EMRLSKFFRDFILWRKK; Peptide with targeting and/or antimicrobial activity) [Peptide 1T-76]	S. pneumoniae
1T-77 (EMRISRIILDFLFLRKK; Peptide with targeting and/or antimicrobial activity) [Peptide 1T-77]	S. pneumoniae
1T-78 (FFKTIFVLILGALGVAAGLYIEKNYIDK; Peptide with targeting and/or antimicrobial activity) [Peptide 1T-78]	S. pneumoniae
1T-79 (FGTPWSITNFWKKNFNDRPDFDSDRRRY; Peptide with targeting and/or antimicrobial activity) [Peptide 1T-79]	S. pneumoniae

Substance	Target(s)
1T-80 (GGNLGPGFGVIIP; Peptide with targeting and/or antimicrobial activity) [Peptide 1T-80]	S. pneumoniae
1T-81 (AIATGLDIVDGKFDGYLWA; Peptide with targeting and/or antimicrobial activity) [Peptide 1T-81]	S. pneumoniae
1T-82 (FGVGVGIALFMAGYAIGKDLRKKFGKSC; Peptide with targeting and/or antimicrobial activity) [Peptide 1T-82]	S. pneumoniae
1T-83 (QKPRKNETFIGYIQRYDIDGNGYQSLPCPQN; Peptide with targeting and/or antimicrobial activity) [Peptide 1T-83]	S. pneumoniae
1T-84 (FRKKRYGLSILLWLNAFTNLVNSIHAFYMTLF; Peptide with targeting and/or antimicrobial activity) [Peptide 1T-84]	S. pneumoniae
1T-86 (HRKNPVLGVGRRHRAHNVA; Peptide with targeting and/or antimicrobial activity) [Peptide 1T-86]	S. mitis; also recorded: S. oralis; also recorded: S. salivarious
1T-87 (EAVGQDLVDAHHP; Peptide with targeting and/or antimicrobial activity) [Peptide 1T-87]	S. mitis; also recorded: S. mutans; also recorded: S. oralis
1T-89 (HEDDKRRGMSVEVLGFEVVQHEE; Peptide with targeting and/or antimicrobial activity) [Peptide 1T-89]	S. mitis; also recorded: S. mutans
1T-90 (RNVIGQVL; Peptide with targeting and/or antimicrobial activity) [Peptide 1T-90]	S. gordonii; also recorded: S. mitis; also recorded: S. mutans; also recorded: S. oralis; also recorded: S. sanguinis
1T-91 (TSVRPGAAGAAVPAGAAGAAGAGWRWP; Peptide with targeting and/or antimicrobial activity) [Peptide 1T-91]	S. mitis; also recorded: S. mutans; also recorded: S. oralis; also recorded: S. sanguinis
1T-92 (GQDEGQRRAGVGEGQGVDG; Peptide with targeting and/or antimicrobial activity) [Peptide 1T-92]	S. mitis; also recorded: S. mutans
1T-93 (AMRSVNQA; Peptide with targeting and/or antimicrobial activity) [Peptide 1T-93]	S. epidermidis; also recorded: S. gordonii; also recorded: S. mitis; also recorded: S. mutans; also recorded: S. oralis; also recorded: S. sanguinis
1T-94 (DQVAHSGDMLVQARRRDS; Peptide with targeting and/or antimicrobial activity) [Peptide 1T-94]	S. mitis; also recorded: S. mutans; also recorded: S. oralis
1T-95 (GHLLRVGGRVGGVGGVAGACAQPFGGQ; Peptide with targeting and/or antimicrobial activity) [Peptide 1T-95]	S. gordonii; also recorded: S. mitis; also recorded: S. mutans; also recorded: S. oralis; also recorded: S. sanguinis
1T-96 (VAGACAQPFGGQ; Peptide with targeting and/or antimicrobial activity) [Peptide 1T-96]	S. gordonii; also recorded: S. mitis; also recorded: S. mutans; also recorded: S. oralis; also recorded: S. sanguinis
1T-99 (MKAWLGQ; Peptide with targeting and/or antimicrobial activity) [Peptide 1T-99]	S. gordonii; also recorded: S. mitis; also recorded: S. mutans; also recorded: S. oralis; also recorded: S. sanguinis
